Several values for one entry are separate records, joined by “and”; a condition that tells them apart may be missing. Identical values can stand only once.
Experiments:
[1] = tested on: sciatic nerve crush; assay: Sciatic Functional Index after sciatic nerve crush; type: in vivo, Wistar rats
Description: SFI is the current standard for measuring functional recovery following rat sciatic nerve crush. Its calculation involves the measurement of wide-ranging relationships between feet and toes of the hindlimb of recovering animals. SFI values close to −100 indicate severe damage, while SFI values close to 0 indicate normal function. The treated rats improved their walk and the relationship between feet and toes of the crushed hindlimbs starting from day 14 to day 21.
(§1) One day prior to the surgery and the behavioral testing, Wistar rats were handled by the investigators and introduced to the testing environment for a brief period of time. Rats were anesthetized with chloral hydrate 4.5% (1 mL/100 g). […] After the exposure, the nerve was crushed once for 30 s at standardized force. The muscle was reapproximated and the skin incision was closed using 6 to 0 sutures. The examination of the loss of sensory and motor function in the operated limb established the crush completeness. Digits in the operated limb were pinched with a blunt forceps. Absence of foot withdrawal and vocalization was recorded as loss of sensory and motor function. Animals were placed under a heating lamp until they recovered from the anesthesia and they returned to their home cages.
(§2) The tested solutions were freshly prepared on surgery day (day 0).
[…] The day of the surgery is considered as day 0 [36, 37, 38].
In the present study, the plantar surfaces of the hindlimbs of the rats were impregnated with ink and then the animals were allowed to walk on a paper along a corridor, leaving footprints during walking.
A wooden corridor (1 m × 8 cm) with raised sidewalls was used. Two and a half white paper strips (40 × 7.5 cm) were placed along the corridor and were fixed with adhesive tape closely together and at the base and the sidewalls of the corridor. Each rat was trained to walk steadily along the corridor without stops until it made three at least successful efforts of continuous walking. The footprints were allowed to dry and were then converted into digital images using a computer and a high resolution scanner. The image processing was done by using the ImageJ. This is an open-source image analysis software created in 1997 by Rayne Rasband (National Institute of Health), widely used in medical applications, especially neuroscience, for measuring distances and surface and plotting the data. The footprints were analyzed as described by Bain et al. in measurements were included: • (i) print length (PL): distance from the heel to the third toe, • (ii) toe spread (TS) distance from the first to the fifth toe on both sides and • (iii) intermediate toe spread (ITS) the distance between the middle of the second and fourth toe
All measurements were taken both from the experimental (EPL, ETS, EIT) and the normal (NPL, NTS, NIT) side. The formula used to calculate SFI was the following: SFI = −38.3 (EPL − NPL)/NPL + 109.5 (ETS − NTS)/NTS + 13.3 (EIT − NIT)/NIT − 8.8

[2] = tested on: carrageenin-induced rat paw oedema; assay: Inhibition of the carrageenin-induced rat paw oedema; type: in vivo, Fisher-344 rats; settings: 0.01 mmol/1 kg, i.p., 3.5 h after carrageenin
Protocol: Anti-inflammatory tests were conducted on Fisher-344 inbred rats of ca. 200 g body weight whereas antinociception and motor and sensory functions after sciatic nerve crash were performed on Wistar rats. Both sexes were used. Females pregnant were excluded. Each group was composed of 6 animals. The animals, which have been bred in our laboratory, were housed under standard conditions and received a diet of commercial food pellets and water ad libitum during the maintenance. Our studies were carried out in accordance with recognised guidelines on animal experimentation.
The tested compounds 0.01 mmol/kg body weight were suspended in water with few drops of Tween 80 and ground in a mortar before use. Controls received the liquid vehicle only. All the in vivo experiments were repeated at least in triplicate and were subjected to statistic analysis using the student’s t-test.
Oedema was induced in the right hind paw of Fisher 344 rats by the intradermal injection of 0.1 mL 2% carrageenin in water. Each group was composed of 6 animals which they were entirely fasted during the experiment period. The tested compounds 0.01 mmol/kg body weight, were given intraperitoneally simultaneously with the carrageenin injection. The rats were euthanized 3.5 h after carrageenin injection. The difference between the weight of the injected and not-injected paws was calculated for each animal. The change in paw weight was compared with that in control animals (treated with water) and expressed as a percent inhibition of the oedema (ICPE % values in Table 1). Indomethacin 0.01 mmol/kg was used as reference compound. ICPE % are the mean values from two different experiments with a standard error of the mean less than 10%.

[3] = biological target: T1, pancreatic bovine trypsin (Bos taurus, UniProt P00760); assay: Inhibition of trypsin induced proteolysis in vitro; type: biochemical; settings: bovine albumin substrate, pH 7.6, 37 °C; read-out: IC50 μM Trypsin Inh.
T1 construct: purchased Sigma Chemical, Co. (St. Louis, MO, USA)
T1 sequence (P00760 24-246): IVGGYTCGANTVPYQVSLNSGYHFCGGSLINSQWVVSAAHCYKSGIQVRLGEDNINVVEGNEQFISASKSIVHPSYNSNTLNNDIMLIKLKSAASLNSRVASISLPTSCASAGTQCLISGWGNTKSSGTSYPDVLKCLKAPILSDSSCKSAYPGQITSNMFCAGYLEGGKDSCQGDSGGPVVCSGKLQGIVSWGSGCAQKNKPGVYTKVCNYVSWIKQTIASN

[4] = tested on: sciatic nerve crush; assay: Flat runway test after sciatic nerve crush; type: in vivo, Wistar rats; set-up: key: 0: No movement; 1: Mild movement; 2: Walking with mild deficit; 3: Nearly normal; settings: crushed animals treated with 2a, day 1 to day 21
Protocol: The locomotor function recovery was examined through the flat runway test, the inclined plane runway test, the grid walking test and the Sciatic Functional Index (SFI) calculation.
as §1, §2
The animals were subjected to a locomotor testing one day before the surgery and on the 1st, 8th, 15th and 22nd day after the sciatic nerve injury. The day of the surgery is considered as day 0 [36, 37, 38].
Rats were trained to walk on a wooden board (1 m × 15 cm) for 120 s. The hindlimb movement was assessed with the scoring mentioned before.

[5] = single i.p. dose 0.01 mmol/mL/kg, 8 h after surgery

## CC(=O)Nc1ccc(OC(=O)/C=C/c2cccc(Oc3ccccc3)c2)cc1 [Compound 2a, (E)-4-Acetamidophenyl 3-(3-phenoxyphenyl)acrylate]
[1]; baseline before surgery and dosing
  SFI, Day before Crash: −10.26
[1]; [5]
  SFI, Day-1: −93.3
  SFI, Day-7: −93.3
  SFI, Day-14: −35.45
  SFI, Day-21: −20.06
[2]
  % ICPE (carrageenin-induced rat paw oedema inhibition): 36.5% and 36.5 ** %
[3]
  IC50: 10 µM
[4]
  Flat runway score (movement in hindlimb): 3
